The source of these data is US20080009418A1, “Selective Inhibitors” (Alchemia LTD., priority 2004, published 2008).

In one assay the target is T1, Human δ-opioid (DOP) (Homo sapiens, UniProt P41143).
T1 construct: purchased Perkin Elmer Biosignal
The assay is described as follows: Radioligand binding, human δ-opioid (DOP) membranes, FlashPlate, [3H]-Bremazocine. To be noted: compound at 10 μM, [3H]-Bremazocine. As for the experimental part: (§1) Cloned receptor membrane preparations from Perkin Elmer Biosignal™ were used in radioligand binding assays.
(§2) A1 Human δ-opioid (DOP), A2 Human κ-Opioid (KOP), A3 Human Melanocortin (MC3), A4 Human Melanocortin (MC4), A5 Human melanocortin (MC5), A6 Human melanin-concentrating hormone (MCH1), A7 Human μ-opioid (MOP), A8 Human neurokinin (NK1), A9 Human neuropeptide Y (NPY-Y1), A10 Human opioid (ORL1) A11 Mouse urotensin (mUR2)
(§3) Screening experiments were performed in either a 50 μl filtration or 25 μl FlashPlate assay format using the following protocol:
(§4) 19.5 μl buffer, 0.5 μl of compound diluted in DMSO, 5 μl of radioligand diluted in binding buffer.
(§5) The day prior to performing the experiment 50 μl DMSO was added to each well of the compound plates to yield compounds at a final concentration of 10 mM. Daughter plates were then created by diluting the compounds further in DMSO to a concentration of 0.5 mM. The mother plates were frozen immediately.
(§6) Immobilize membranes into FlashPlate microplates using PerkinElmer BioSignal's proprietary coating procedure. Dilute radioligand to 5× the final concentration in binding buffer. Add 19.5 μl buffer to each well of the FlashPlate. Add 0.5 μl of DMSO (total value, 5 wells), reference ligand (non-specific value, 3 wells) or compound to the corresponding wells in the FlashPlate microplate. Initiate the reaction by adding 5 μl of radioligand to each well. Apply TopSeal-A onto FlashPlate microplates. Incubate at room temperature for 1 hour in the dark. Count for 30 seconds per well on TopCount Microplate Scintillation and Luminescence Counter (PerkinElmer) using a count delay of 60 seconds.
(§7) Percentage inhibition was calculated using the following formula: [formula]

For a further assay, the target named is T2, Human κ-Opioid (KOP) (Homo sapiens, UniProt P41145).
T2 construct: purchased Perkin Elmer Biosignal
Nature of the assay: Radioligand binding, human κ-opioid (KOP) membranes, filtration, [3H]-Diprenorphine. To be noted: compound at 10 μM, [3H]-Diprenorphine. As for the experimental part: as §1, §2, §3
(§8) 44 μl membranes diluted in buffer, 1 μl of compound diluted in DMSO, 5 μl of radioligand diluted in binding buffer.
as §5
(§9) Thaw membranes on ice then dilute membranes in binding buffer at a concentration of 1 Unit per well. Dilute radio-ligand to 10 times the final concentration in binding buffer. Add 44 μl of diluted membranes to each well of the deep-well plate. Add 1 μl of DMSO (total value, 5 wells), reference ligand (non-specific value, 3 wells) or compound to the corresponding wells in the deep-well plate. Initiate the reaction by adding 5 μl of radioligand to each well and vortex gently. Incubate at room temperature for 1 hour. During incubation, pre-incubate the Multiscreen Harvest plates in 0.3% PEI. Filter over pre-soaked Multiscreen Harvest plates using a Tomtec Harvester. Wash 9 times with 500 μl of cold 50 mM Tris-HCl pH 7.4 at 4° C. and air-dry for 30 minutes at room temperature under a fume hood. Apply a bottom seal to the Multiscreen Harvest plates. Add 25 μl of MicroScint-0 to each well. Apply TopSeal-A to the plate. Count for 30 seconds per well on TopCount Microplate Scintillation and Luminescence Counter (PerkinElmer) using a count delay of 60 seconds.
as §7

The target of the next assay is T3, Human μ-opioid (MOP) (Homo sapiens, UniProt P35372).
T3 construct: purchased Perkin Elmer Biosignal
The assay is described as follows: Radioligand binding, human μ-opioid (MOP) membranes, FlashPlate, [3H]-Naloxone. To be noted: compound at 10 μM, [3H]-Naloxone. As for the experimental part:
as §1, §2, §3, §4, §5, §6, §7

The target of the next assay is T4, Human Melanocortin (MC3) (Homo sapiens, UniProt P41968).
T4 construct: purchased Perkin Elmer Biosignal
The assay is described as follows: Radioligand binding, human melanocortin MC3 membranes, FlashPlate, [125I]-NDP-αMSH. To be noted: compound at 10 μM, [125I]-NDP-αMSH. As for the experimental part: as §1, §2, §3, §4, §5, §6, §7

In a further assay the target is T5, Human opioid (ORL1) (Homo sapiens, UniProt P41146).
T5 construct: purchased Perkin Elmer Biosignal
The assay is described as follows: Radioligand binding, human opioid ORL1 membranes, FlashPlate, [125I]-Nociceptin. To be noted: compound at 10 μM, [125I]-Nociceptin. As to the method: as §1, §2, §3, §4, §5, §6, §7

The target of assay [1] is T6, Human melanin-concentrating hormone (MCH1) (Homo sapiens, UniProt Q99705).
T6 construct: purchased Perkin Elmer Biosignal
Nature of the assay: Radioligand binding, human melanin-concentrating hormone MCH1 membranes, FlashPlate, [125I]-S36057. To be noted: compound at 10 μM. As to the method:
as §1, §2, §3, §4, §5, §6, §7

The target in another assay is T7, Human melanocortin (MC5) (Homo sapiens, UniProt P33032).
T7 construct: purchased Perkin Elmer Biosignal
Nature of the assay: Radioligand binding, human melanocortin MC5 membranes, FlashPlate, [125I]-NDP-αMSH. To be noted: compound at 10 μM, [125I]-NDP-αMSH. As for the experimental part:
as §1, §2, §3, §4, §5, §6, §7

A further assay addresses T8, Human neurokinin (NK1) (Homo sapiens, UniProt P25103).
T8 construct: purchased Perkin Elmer Biosignal
Nature of the assay: Radioligand binding, human neurokinin NK1 membranes, filtration, [125I]-Substance P. To be noted: compound at 10 μM, [125I]-Substance P. As to the method:
as §1, §2, §3, §8, §5, §9, §7

Assay [2] addresses T9, Human neuropeptide Y (NPY-Y1) (Homo sapiens, UniProt P25929).
T9 construct: purchased Perkin Elmer Biosignal
T9 sequence (P25929 1-384): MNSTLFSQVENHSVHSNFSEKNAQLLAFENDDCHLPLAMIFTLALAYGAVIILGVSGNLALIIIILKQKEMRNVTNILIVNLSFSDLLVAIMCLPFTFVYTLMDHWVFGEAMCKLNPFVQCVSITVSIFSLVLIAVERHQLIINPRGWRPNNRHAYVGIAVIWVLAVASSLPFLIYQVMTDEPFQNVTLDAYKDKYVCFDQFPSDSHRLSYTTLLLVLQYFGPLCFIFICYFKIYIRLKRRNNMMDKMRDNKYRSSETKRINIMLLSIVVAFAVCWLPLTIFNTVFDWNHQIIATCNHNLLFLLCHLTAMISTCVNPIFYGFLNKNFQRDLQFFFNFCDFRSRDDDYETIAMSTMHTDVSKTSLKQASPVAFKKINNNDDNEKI
Nature of the assay: Radioligand binding, human neuropeptide Y NPY-Y1 membranes, FlashPlate, [125I]-PYY. To be noted: compound at 10 μM, [125I]-PYY. As to the method: as §1, §2, §3, §4, §5, §6, §7

In another assay the target is T10, Mouse urotensin (mUR2) (Mus musculus, UniProt Q8VIH9).
T10 construct: purchased Perkin Elmer Biosignal
T10 sequence (Q8VIH9 1-385): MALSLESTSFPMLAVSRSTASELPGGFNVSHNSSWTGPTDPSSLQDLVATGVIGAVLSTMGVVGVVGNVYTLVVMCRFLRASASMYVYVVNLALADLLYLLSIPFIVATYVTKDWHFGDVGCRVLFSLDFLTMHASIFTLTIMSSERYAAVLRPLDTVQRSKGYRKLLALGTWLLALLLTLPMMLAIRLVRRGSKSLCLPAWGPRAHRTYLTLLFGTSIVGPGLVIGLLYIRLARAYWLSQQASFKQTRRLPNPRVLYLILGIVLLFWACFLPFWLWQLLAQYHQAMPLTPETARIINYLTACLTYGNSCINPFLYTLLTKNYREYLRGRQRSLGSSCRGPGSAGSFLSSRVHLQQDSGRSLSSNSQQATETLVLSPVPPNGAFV
The assay is described as follows: Radioligand binding, mouse urotensin mUR2 membranes, FlashPlate, [125I]-Urotensin II. To be noted: compound at 10 μM, [125I]-Urotensin II. As to the method: as §1, §2, §3, §4, §5, §6, §7

For the next assay, the target named is T11, Human Melanocortin (MC4) (Homo sapiens, UniProt P32245).
T11 construct: purchased Perkin Elmer Biosignal
The assay is described as follows: Radioligand binding, human melanocortin MC4 membranes, FlashPlate, [125I]-NDP-αMSH. To be noted: compound at 10 μM, [125I]-NDP-αMSH. As to the method:
as §1, §2, §3, §4, §5, §6, §7

The structures appear in SMILES notation.

T6 sequence (Q99705 whole entry): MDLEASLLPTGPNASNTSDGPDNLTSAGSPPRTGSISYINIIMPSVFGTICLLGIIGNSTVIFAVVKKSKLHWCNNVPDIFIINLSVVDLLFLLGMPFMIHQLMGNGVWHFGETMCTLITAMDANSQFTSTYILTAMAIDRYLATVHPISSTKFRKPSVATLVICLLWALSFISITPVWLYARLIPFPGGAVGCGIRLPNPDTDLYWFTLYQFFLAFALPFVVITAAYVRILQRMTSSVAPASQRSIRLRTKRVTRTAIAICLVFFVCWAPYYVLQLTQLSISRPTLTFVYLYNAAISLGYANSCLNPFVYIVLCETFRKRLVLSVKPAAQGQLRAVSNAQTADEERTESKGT
T11 sequence (P32245 whole entry): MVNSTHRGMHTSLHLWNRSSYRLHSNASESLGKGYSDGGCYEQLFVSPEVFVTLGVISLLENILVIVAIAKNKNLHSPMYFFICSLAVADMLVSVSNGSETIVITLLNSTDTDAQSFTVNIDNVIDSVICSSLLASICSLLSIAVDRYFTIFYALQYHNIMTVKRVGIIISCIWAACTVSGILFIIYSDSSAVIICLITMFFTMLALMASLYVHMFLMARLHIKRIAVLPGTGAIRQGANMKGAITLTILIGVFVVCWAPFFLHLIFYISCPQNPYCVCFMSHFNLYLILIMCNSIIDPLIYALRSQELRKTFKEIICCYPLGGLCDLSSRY
T3 sequence (P35372 whole entry): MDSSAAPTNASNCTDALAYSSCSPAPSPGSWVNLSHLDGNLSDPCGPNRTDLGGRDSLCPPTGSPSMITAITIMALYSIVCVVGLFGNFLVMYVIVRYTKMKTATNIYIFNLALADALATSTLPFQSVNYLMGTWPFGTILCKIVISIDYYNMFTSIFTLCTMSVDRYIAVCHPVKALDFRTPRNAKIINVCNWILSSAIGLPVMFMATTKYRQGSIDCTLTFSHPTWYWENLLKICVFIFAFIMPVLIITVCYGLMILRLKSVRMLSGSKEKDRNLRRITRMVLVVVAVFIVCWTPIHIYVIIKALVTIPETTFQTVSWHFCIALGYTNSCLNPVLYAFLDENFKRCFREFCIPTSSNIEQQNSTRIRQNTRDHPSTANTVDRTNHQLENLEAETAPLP
T1 sequence (P41143 whole entry): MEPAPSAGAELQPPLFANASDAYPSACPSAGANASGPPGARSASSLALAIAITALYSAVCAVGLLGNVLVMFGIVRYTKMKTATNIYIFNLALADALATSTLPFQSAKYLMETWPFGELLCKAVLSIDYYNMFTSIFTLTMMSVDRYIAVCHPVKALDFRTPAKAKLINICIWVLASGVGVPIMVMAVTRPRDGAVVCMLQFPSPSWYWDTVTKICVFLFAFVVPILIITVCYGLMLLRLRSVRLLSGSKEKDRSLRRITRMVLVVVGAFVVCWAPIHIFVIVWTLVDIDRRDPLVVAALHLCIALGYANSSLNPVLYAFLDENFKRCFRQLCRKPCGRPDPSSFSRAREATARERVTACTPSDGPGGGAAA
T5 sequence (P41146 whole entry): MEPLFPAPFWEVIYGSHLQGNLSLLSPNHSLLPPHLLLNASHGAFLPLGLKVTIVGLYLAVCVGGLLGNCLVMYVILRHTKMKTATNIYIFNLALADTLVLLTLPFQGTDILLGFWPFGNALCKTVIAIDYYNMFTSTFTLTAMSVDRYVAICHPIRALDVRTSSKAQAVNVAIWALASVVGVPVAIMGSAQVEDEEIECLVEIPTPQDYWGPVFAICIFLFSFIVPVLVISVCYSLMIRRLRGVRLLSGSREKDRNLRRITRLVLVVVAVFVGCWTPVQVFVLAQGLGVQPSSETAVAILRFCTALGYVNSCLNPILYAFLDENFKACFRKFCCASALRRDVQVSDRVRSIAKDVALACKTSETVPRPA
T7 sequence (P33032 whole entry): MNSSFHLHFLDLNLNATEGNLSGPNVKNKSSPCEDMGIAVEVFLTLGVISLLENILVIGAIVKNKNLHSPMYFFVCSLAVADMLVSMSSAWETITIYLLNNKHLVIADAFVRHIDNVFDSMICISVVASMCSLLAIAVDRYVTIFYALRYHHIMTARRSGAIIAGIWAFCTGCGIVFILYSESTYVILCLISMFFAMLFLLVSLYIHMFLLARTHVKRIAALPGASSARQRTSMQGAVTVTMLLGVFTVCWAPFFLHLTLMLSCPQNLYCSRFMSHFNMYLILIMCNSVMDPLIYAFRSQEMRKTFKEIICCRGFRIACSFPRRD
T8 sequence (P25103 whole entry): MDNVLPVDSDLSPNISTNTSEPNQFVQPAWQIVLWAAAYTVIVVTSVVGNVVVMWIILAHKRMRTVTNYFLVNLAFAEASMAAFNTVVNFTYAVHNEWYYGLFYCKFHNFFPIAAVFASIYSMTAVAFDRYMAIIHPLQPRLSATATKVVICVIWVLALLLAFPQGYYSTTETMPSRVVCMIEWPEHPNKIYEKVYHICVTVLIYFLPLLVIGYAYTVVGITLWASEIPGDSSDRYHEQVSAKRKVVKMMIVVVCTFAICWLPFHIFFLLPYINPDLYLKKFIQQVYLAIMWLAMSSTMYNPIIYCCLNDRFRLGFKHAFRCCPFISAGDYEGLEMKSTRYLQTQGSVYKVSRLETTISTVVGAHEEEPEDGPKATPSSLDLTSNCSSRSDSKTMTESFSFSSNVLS
T2 sequence (P41145 whole entry): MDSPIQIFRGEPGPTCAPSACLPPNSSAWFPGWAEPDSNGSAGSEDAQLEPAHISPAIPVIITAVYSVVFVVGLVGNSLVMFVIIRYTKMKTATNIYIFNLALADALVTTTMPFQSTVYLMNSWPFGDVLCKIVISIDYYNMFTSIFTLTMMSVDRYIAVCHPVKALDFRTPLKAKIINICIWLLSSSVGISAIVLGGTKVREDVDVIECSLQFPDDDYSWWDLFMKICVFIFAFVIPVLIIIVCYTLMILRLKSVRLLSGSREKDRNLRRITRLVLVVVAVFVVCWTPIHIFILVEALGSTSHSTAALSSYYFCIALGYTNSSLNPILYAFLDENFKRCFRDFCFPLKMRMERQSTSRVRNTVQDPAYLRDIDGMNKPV
T4 sequence (P41968 whole entry): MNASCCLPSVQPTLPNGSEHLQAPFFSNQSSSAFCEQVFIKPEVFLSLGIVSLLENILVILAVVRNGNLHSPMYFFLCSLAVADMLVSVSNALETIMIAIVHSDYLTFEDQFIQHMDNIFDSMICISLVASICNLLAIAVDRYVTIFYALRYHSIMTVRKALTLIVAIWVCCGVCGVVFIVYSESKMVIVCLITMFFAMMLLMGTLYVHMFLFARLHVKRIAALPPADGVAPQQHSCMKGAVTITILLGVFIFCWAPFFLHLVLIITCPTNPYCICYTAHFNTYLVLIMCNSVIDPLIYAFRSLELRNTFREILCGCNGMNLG

For `NCCCC(=O)NC1C(OCc2ccc3ccccc3c2)OC(COCc2ccc(Cl)cc2)C(O)C1OCc1ccc(Cl)cc1` (single isomer, unassigned) [compound 458], the “A1: inhibition of radioligand binding” value at Human δ-opioid (DOP) (human DOP membranes) is given as “− (“−” indicates less than 50% inhibition at 10 μM)”. Moreover, the “A2: inhibition of radioligand binding” value on Human κ-Opioid (KOP) (human KOP membranes) is reported as “− (“−” indicates less than 50% inhibition at 10 μM)”. The “A7: inhibition of radioligand binding” value at Human μ-opioid (MOP) (human MOP membranes, 10 µM) is reported as “+ (“+” indicates greater than 50% inhibition at 10 μM)”. Moreover, the “A3: inhibition of radioligand binding” value at Human Melanocortin (MC3) (human MC3 membranes) is on record as “+ (“+” indicates greater than 50% inhibition at 10 μM)”. Further, the “A10: inhibition of radioligand binding” value on Human opioid (ORL1) (human ORL1 membranes, 10 µM) is “+ (“+” indicates greater than 50% inhibition at 10 μM)”. The “A6: inhibition of radioligand binding” value in assay [1] ([125I]-S36057, human MCH1 membranes, 10 µM) is listed as “+ (“+” indicates greater than 50% inhibition at 10 μM)”. The “A5: inhibition of radioligand binding” value at Human melanocortin (MC5) (human MC5 membranes) was “+ (“+” indicates greater than 50% inhibition at 10 μM)”. Also, the “A8: inhibition of radioligand binding” value at Human neurokinin (NK1) (human NK1 membranes) is on record as “+ (“+” indicates greater than 50% inhibition at 10 μM)”. Also, the “A9: inhibition of radioligand binding” value in [2] (human NPY-Y1 membranes) is on record as “− (“−” indicates less than 50% inhibition at 10 μM)”. Besides, the “A11: inhibition of radioligand binding” value at Mouse urotensin (mUR2) (mouse mUR2 membranes) is listed as “− (“−” indicates less than 50% inhibition at 10 μM)”. Further, the “A4: inhibition of radioligand binding” value on Human Melanocortin (MC4) (human MC4 membranes) is “+ (“+” indicates greater than 50% inhibition at 10 μM)”.

Turning to `CSC1OC(COCc2cccc(N)c2)C(O)C(OCc2ccc(Cl)cc2)C1NC(=O)C=Cc1ccccc1` (stereo not shown) [compound 329], the “A1: inhibition of radioligand binding, human δ-opioid (DOP)” value on Human δ-opioid (DOP) is reported as “− (“−” indicates less than 50% inhibition at 10 μM)”. Further, the “A2: inhibition of radioligand binding, human κ-opioid (KOP)” value at Human κ-Opioid (KOP) is reported as “− (“−” indicates less than 50% inhibition at 10 μM)”. Also, on Human μ-opioid (MOP), the “A7: inhibition of radioligand binding, human μ-opioid (MOP)” value was “− (“−” indicates less than 50% inhibition at 10 μM)”. In addition, the “A3: inhibition of radioligand binding, human melanocortin (MC3)” value at Human Melanocortin (MC3) was “− (“−” indicates less than 50% inhibition at 10 μM)”. Moreover, at Human opioid (ORL1), the “A10: inhibition of radioligand binding, human opioid (ORL1)” value is “− (“−” indicates less than 50% inhibition at 10 μM)”. Moreover, the “A6: inhibition of radioligand binding, human melanin-concentrating hormone (MCH1)” value in assay [1] ([125I]-S36057) is reported as “− (“−” indicates less than 50% inhibition at 10 μM)”. Further, the “A5: inhibition of radioligand binding, human melanocortin (MC5)” value at Human melanocortin (MC5) is “− (“−” indicates less than 50% inhibition at 10 μM)”. Also, the “A8: inhibition of radioligand binding, human neurokinin (NK1)” value on Human neurokinin (NK1) is recorded as “+ (“+” indicates greater than 50% inhibition at 10 μM)”. Also, in assay [2], the “A9: inhibition of radioligand binding, human neuropeptide Y (NPY-Y1)” value is “− (“−” indicates less than 50% inhibition at 10 μM)”. The “A11: inhibition of radioligand binding, mouse urotensin (mUR2)” value on Mouse urotensin (mUR2) was “− (“−” indicates less than 50% inhibition at 10 μM)”. For the same compound, the “A4: inhibition of radioligand binding, human melanocortin (MC4)” value at Human Melanocortin (MC4) is “− (“−” indicates less than 50% inhibition at 10 μM)”.
